Non-standard residues stand in square brackets, D forms with d. Residues, ends and D or L forms follow the SMILES beside them. No end group written: not given here. *: point of attachment. Arg(Me) = CNC(=N)NCCC[C@H](N)C(=O)O; 4Pal = N[C@@H](Cc1ccncc1)C(=O)O; Cha = N[C@@H](CC1CCCCC1)C(=O)O; Orn = NCCC[C@H](N)C(=O)O; Abu = CC[C@H](N)C(=O)O; Bz = O=C(c1ccccc1)*; azaGly = NNC(=O)O
Columns and labels:
Assay type in all cases: cell-based
hOT7T175 [1] = molecular target: T1, hOT7T175 (Homo sapiens, UniProt Q969F8, L364H); test: Intracellular Ca ion level-increasing activity using FLIPR (180 seconds; specific activity to Metastin (1-54)); conditions: hOT7T175/CHO, relative to Metastin (1-54) = 1
T1 construct: expressed in transfected cells

hOT7T175 [2] = molecular target: T2, hOT7T175 (Homo sapiens, UniProt Q969F8); test: as above; conditions: hOT7T175/CHO, change in intracellular calcium ion level for 180 seconds, Tables 21-23
T2 construct: expressed in transfected cells

hOT7T175 [3] = molecular target: T1, hOT7T175; conditions: hOT7T175/CHO, FLIPR, evaluation for 40 seconds after initiation of the reaction
Experimental: The intracellular Ca ion level-increasing activity was measured using FLIPR as in TEST EXAMPLE 2.

T2 sequence (Q969F8 whole entry L364H): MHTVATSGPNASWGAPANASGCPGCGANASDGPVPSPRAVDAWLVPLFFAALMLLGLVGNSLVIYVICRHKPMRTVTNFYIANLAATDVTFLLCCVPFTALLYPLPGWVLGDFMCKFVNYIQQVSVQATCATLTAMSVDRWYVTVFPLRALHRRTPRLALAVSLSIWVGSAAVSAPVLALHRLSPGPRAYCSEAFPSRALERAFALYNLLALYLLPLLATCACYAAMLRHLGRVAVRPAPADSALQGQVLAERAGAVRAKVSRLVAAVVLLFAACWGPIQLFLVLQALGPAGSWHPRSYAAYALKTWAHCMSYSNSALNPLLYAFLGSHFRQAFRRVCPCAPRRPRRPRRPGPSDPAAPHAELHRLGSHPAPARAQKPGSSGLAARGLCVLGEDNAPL
T1 sequence (Q969F8 whole entry L364H): as above

Molecule | Specific Act. (intracellular Ca ion level-increasing activity, specific activity to Metastin (1-54)) (hOT7T175 [1]) | intracellular Ca ion level-increasing activity [specific activity to Metastin (1-54)] (hOT7T175 [2]) | Specific Act. (EC50/MS10 EC50) (hOT7T175 [3])
CC(C)C[C@H](NC(=O)CNC(=O)[C@H](Cc1ccccc1)NC(=O)[C@H](CO)NC(=O)[C@H](CC(N)=O)NC(=O)[C@H](Cc1c[nH]c2ccccc12)NC(=O)[C@H](CC(N)=O)NC(=O)[C@@H](N)Cc1ccc(O)cc1)C(=O)N[C@@H](CCCNC(=N)N)C(=O)N[C@@H](Cc1ccccc1)C(N)=O [Compound No. 3, reference compound] | 10 |  | 
CC(C)C[C@H](NC(=O)CNC(=O)[C@H](Cc1ccccc1)NC(=O)[C@H](CO)NC(=O)[C@H](CC(N)=O)NC(=O)[C@H](Cc1c[nH]c2ccccc12)NC(=O)[C@H](CC(N)=O)NC(=O)[C@@H](N)Cc1ccc(O)cc1)C(=O)N[C@@H](CCCNC(=N)N)C(=O)N[C@@H](Cc1ccncc1)C(N)=O [Compound No. 17] (H-YNWNSFGLR[4Pal]-NH2) | 5 |  | 
COc1ccc(C[C@H](NC(=O)[C@H](CCCNC(=N)N)NC(=O)[C@H](CC(C)C)NC(=O)CNC(=O)[C@H](Cc2ccccc2)NC(=O)[C@H](CO)NC(=O)[C@H](CC(N)=O)NC(=O)[C@H](Cc2c[nH]c3ccccc23)NC(=O)[C@H](CC(N)=O)NC(=O)[C@@H](N)Cc2ccc(O)cc2)C(N)=O)cc1 [Compound No. 18] (H-YNWNSFGLRY(Me)-NH2) | 1 |  | 
CC(C)C[C@H](NC(=O)CNC(=O)[C@H](Cc1ccccc1)NC(=O)[C@H](CO)NC(=O)[C@H](CC(N)=O)NC(=O)[C@H](Cc1c[nH]c2ccccc12)NC(=O)[C@H](CC(N)=O)NC(=O)[C@@H](N)Cc1ccc(O)cc1)C(=O)N[C@@H](CCCN)C(=O)N[C@@H](Cc1ccccc1)C(N)=O [Compound No. 314] (H-YNWNSFGL[Orn]F-NH2) |  | 1 | 4.4
CNC(=N)NCCC[C@H](NC(=O)[C@H](CC(C)C)NC(=O)NNC(=O)[C@H](Cc1ccccc1)NC(=O)[C@H](CO)NC(=O)[C@H](CC(N)=O)NC(=O)[C@H](Cc1c[nH]c2ccccc12)NC(=O)[C@H](CC(N)=O)NC(=O)[C@H](N)Cc1ccc(O)cc1)C(=O)N[C@@H](Cc1ccc(F)cc1)C(N)=O [Compound No. 318, D-Tyr-Asn-Trp-Asn-Ser-Phe-AzaGly-Leu-Arg(Me)-Phe(4F)-NH2] |  | 5 | 2.9
(2S)-2-(3-Indolylprpionyloxy)-3-phenylpropionyl-AzaGly-Leu-Arg(Me)-Trp-NH2 [Compound No. 379] |  | 2 | 3.0
Ac-NSF[azaGly]L[Arg(Me)]W-NH2 [Compound No. 510] |  | 3 | 3.5
Ac-Phe-AzaGly-Leu-Arg(Me)-Trp-NH2 [Compound No. 358] |  | 2 | 5.6
Acp-D-Tyr-D-Pya(4)-Asn-Ser-Phe-AzaGly-Leu-Arg(Me)-Phe-NH2 [Compound No. 504] |  | 2 | 6.9
Benzoyl-Phe-AzaGly-Leu-Arg(Me)-Trp-NH2 [Compound No. 353] |  | 10 | 0.8
Benzoyl-PheΨ(NHCO)Gly-Leu-Arg(Me)-Trp-NH2 [Compound No. 423] |  | 5 | 5.6
Bz-F[azaGly]L[Arg(Me)]F-NH2 [Compound No. 341] |  | 2 | 2.8
Bz-[Cha][azaGly]L[Arg(Me)]W-NH2 [Compound No. 449] |  | 5 | 4.2
Cyclopropanecarbonyl-Cha-AzaGly-Leu-Arg(Me)-Trp-NH2 [Compound No. 451] |  | 5 | 2.6
Cyclopropanecarbonyl-Phe-AzaGly-Leu-Arg(Me)-Trp-NH2 [Compound No. 447] |  | 5 | 1.4
D-Tyr-D-Pya(4)-Asn-Ile-Phe-AzaGly-Leu-Arg(Me)-Trp-NH2 [Compound No. 498] |  | 7 | 1.5
D-Tyr-D-Pya(4)-Asn-Ser-Cha-Ala-Leu-Arg(Me)-Trp-NH2 [Compound No. 497] |  | 2 | 1.4
D-Tyr-D-Pya(4)-Asn-Ser-Phe-AzaGly-Leu-Har-Phe-NH2 [Compound No. 488] |  | 1 | 5.5
D-Tyr-D-Pya(4)-Asn-Ser-Phe-AzaGly-Leu-Har-Trp-NH2 [Compound No. 481] |  | 5 | 2.4

Molecule | Specific Act. (intracellular Ca ion level-increasing activity, specific activity to Metastin (1-54)) (hOT7T175 [1]) | intracellular Ca ion level-increasing activity [specific activity to Metastin (1-54)] (hOT7T175 [2]) | Specific Act. (EC50/MS10 EC50) (hOT7T175 [3])
D-Tyr-D-Pya(4)-Asn-Trp-Phe-AzaGly-Leu-Arg(Me)-Trp-NH2 [Compound No. 491] |  | 7 | 1.0
D-Tyr-D-Pya(4)-Ser-Phe-AzaGly-Leu-Arg(Me)-Trp-NH2 [Compound No. 494] |  | ⅓ | 8.6
D-Tyr-D-Pya(4)-Thr-Ser-Phe-AzaGly-Leu-Arg(Me)-Trp-NH2 [Compound No. 493] |  | 2 | 2.2
D-Tyr-Pya(4)-Ala-Ser-Phe-AzaGly-Leu-Arg(Me)-Trp-NH2 [Compound No. 502] |  | 10 | 1.4
D-Tyr-Pya(4)-Asn-Ser-Phe-AzaGly-Leu-Arg(Me)-Phe-NH2 [Compound No. 490] |  | 3 | 6.2
Dap-D-Tyr-Asn-Trp-Asn-Ser-Phe-Gly-Leu-Arg(Me)-Phe-NH2 [Compound No. 387] |  | 1 | 5.0
Dibenzylcarbamoyl-AzaGly-Leu-Arg(Me)-Trp-NH2 [Compound No. 393] |  | 1 | 5.9
Dimethylcarbamoyl-Phe-AzaGly-Leu-Arg(Me)-Trp-NH2 [Compound No. 467] |  | 1 | 4.0
Diphenylacetyl-AzaGly-Leu-Arg(Me)-Trp-NH2 [Compound No. 378] |  | ½ | 10.4
Isobutyryl-Phe-AzaGly-Leu-Arg(Me)-Trp-NH2 [Compound No. 438] |  | 3 | 3.0
Pyridazine-4-carbonyl-Phe-AzaGly-Leu-Arg(Me)-Trp-NH2 [Compound No. 480] |  | 1 | 8.3
Pyrimidine-2-carbonyl-Phe-AzaGly-Leu-Arg(Me)-Trp-NH2 [Compound No. 479] |  | 5 | 2.6
Pyrimidine-4-carbonyl-Phe-AzaGly-Leu-Arg(Me)-Trp-NH2 [Compound No. 475] |  | 3 | 4.2
Pyrrole-2-carbonyl-Phe-AzaGly-Leu-Arg(Me)-Trp-NH2 [Compound No. 455] |  | 5 | 4.1
Pyrrole-3-carbonyl-Phe-AzaGly-Leu-Arg(Me)-Trp-NH2 [Compound No. 474] |  | 5 | 3.2
[dY][dF]ASF[azaGly]L[Arg(Me)]W-NH2 [Compound No. 514] |  | 10 | 0.7
[dY][dW]ASF[azaGly]L[Arg(Me)]W-NH2 [Compound No. 503] |  | 10 | 0.4
[dY][dW]ATF[azaGly]L[Arg(Me)]W-NH2 [Compound No. 511] |  | 10 | 0.5
[dY][dW][Abu]SF[azaGly]L[Arg(Me)]W-NH2 [Compound No. 513] |  | 20 | 0.4
